In patent US20260070913A1, “7-AMINO-3,4-DIHYDROPYRIMIDOPYRIMIDIN-2-ONE DERIVATIVE HAVING INHIBITORY ACTIVITY FOR PROTEIN KINASES AND THERAPEUTIC PHARMACEUTICAL COMPOSITION COMPRISING SAME” (KOREA INSTITUTE OF SCIENCE AND TECHNOLOGY, priority 2020, published 2026) one finds GI50 data, which are given here for 5 compounds.

As a reminder, the GI50 is the concentration that inhibits growth by half. Higher therefore signals lower sensitivity of the cells.

One experiment concerns OCI-AML3 (N-Ras Q61L). In words: Proliferation inhibitory activity, OCI-AML3 cell line. The experiment is classed as cell-based. The note with it: Homo sapiens, OCI-AML-3. The method, then: (§1) The inhibitory activities of the compounds of the present disclosure against the proliferation of the mt-NRAS (G12D) Ba/F3 and OCI-AML3 (mt-NRAS) cell lines were measured, and the […] values thereof were calculated.
Referring to the results in Table 2, it can be seen that the compound of the present disclosure has inhibitory activity against the proliferation of the human acute myeloid leukemia cell line (OCI-AML3) having the NRAS mutant gene, and the effect thereof is remarkable. Therefore, it can be seen that the compound of the present disclosure is particularly effective as a therapeutic agent for acute myeloid leukemia (AML).

In the next experiment the test system is Ba/F3 (N-Ras G12D). In words: Proliferation inhibitory activity, mt-NRAS (G12D) Ba/F3 cell line. The experiment is classed as cell-based. The settings on record: Mus musculus, BaF3. As to the method:
as §1

Consider `COc1ccccc1-c1cnc(-c2ccc(C)c(N3Cc4cnc(Nc5ccc(C)nc5C)nc4N(C)C3=O)c2)[nH]1` [Compound No. 2, 7-((2,6-dimethylpyridin-3-yl)amino)-3-(5-(5-(2-methoxyphenyl)-1H-imidazol-2-yl)-2-methylphenyl)-1-methyl-3,4-dihydropyrimido[4,5-d]pyrimidin-2(1H)-one], for which the concentration for 50% growth inhibition (GI50) in the experiment on OCI-AML3 (N-Ras Q61L) and with Ba/F3 (N-Ras G12D) was 0.5 to 3 µM in each case.
Take `Cc1ccc(Nc2ncc3c(n2)N(C)C(=O)N(c2cc(-c4ncc(-c5ccccc5OC(F)(F)F)[nH]4)ccc2C)C3)c(C)n1` [Compound No. 8, 7-((2,6-dimethylpyridin-3-yl)amino)-1-methyl-3-(2-methyl-5-(5-(2-(trifluoromethoxy)phenyl)-1H-imidazole-2-yl)phenyl)-3,4-dihydropyrimido[4,5-d]pyrimidin-2(1H)-one]: the GI50 fell in the range of 3 to 5 µM with OCI-AML3 (N-Ras Q61L) and 0.5 to 3 µM in the experiment with Ba/F3 (N-Ras G12D).
The like results for `CCN1CCC(c2ccc(Nc3ncc4c(n3)N(C)C(=O)N(c3cc(-c5ncc(-c6ccccc6OC(F)(F)F)[nH]5)ccc3C)C4)cn2)CC1` [Compound No. 15, 7-((6-(1-ethylpiperidin-4-yl)pyridin-3-yl)amino)-1-methyl-3-(2-methyl-5-(5-(2-(trifluoromethoxy)phenyl)-1H-imidazol-2-yl)phenyl)-3,4-dihydropyrimido[4,5-d]pyrimidin-2(1H)-one] were, in that order, greater than 5 µM and 3 to 5 µM.
On to `CCN1CCN(c2ccc(Nc3ncc4c(n3)N(C)C(=O)N(c3cc(-c5ncc(-c6ccccc6OC(F)(F)F)[nH]5)ccc3C)C4)cn2)CC1` [Compound No. 16, 7-((6-(4-ethylpiperazin-1-yl)pyridin-3-yl)amino)-1-methyl-3-(2-methyl-5-(5-(2-(trifluoromethoxy)phenyl)-1H-imidazol-2-yl)phenyl)-3,4-dihydropyrimido[4,5-d]pyrimidin-2(1H)-one], for which the concentration for 50% growth inhibition (GI50) in the experiment on OCI-AML3 (N-Ras Q61L) and in the experiment on Ba/F3 (N-Ras G12D) was greater than 5 µM in each case.
Turning to `CC(=O)N1CCC(n2cc(Nc3ncc4c(n3)N(C)C(=O)N(c3cc(-c5ncc(-c6ccccc6OC(F)(F)F)[nH]5)ccc3C)C4)cn2)CC1` [Compound No. 17, 7-((1-(1-acetylpiperidin-4-yl)-1H-pyrazol-4-yl)amino)-1-methyl-3-(2-methyl-5-(5-(2-(trifluoromethoxy)phenyl)-1H-imidazol-2-yl)phenyl)-3,4-dihydropyrimido[4,5-d]pyrimidin-2(1H)-one], the 50% growth inhibitory concentration (GI50) in the experiment with OCI-AML3 (N-Ras Q61L) and in the experiment with Ba/F3 (N-Ras G12D) was greater than 5 µM each time.
